The subject of test [1] is IFN-γ, IL-1β, IL-6, IL-10, IL-12p70, TNF-α and IL-23 secretion by hPBMC. Nature of the test: Inhibition of LPS-induced secretion of multiple cytokines by human-derived PBMC (MSD detection). The settings on record: 8 h compound, then LPS 2 ng/mL 16 h; compared with KT474. The class given is cell-based. As for the experimental part:
Experiment materials: Human-derived peripheral blood mononuclear cells (hPBMC) were provided by Hemacare Donor Center.
Thawing and plating PBMCs: The frozen PBMC was removed from liquid nitrogen, thawed in a 37°C water bath kettle, then resuspended with 10 mL of complete medium, and centrifuged at 350 g at room temperature for 5 min, and the supernatant was discarded. The cells were resuspended with 5 mL of complete medium, and the cells were counted. The cells were diluted to 2 × 10^6/mL based on the counting results, and 0.1 mL (2 × 10^5 cells) was added to each well of the 96-well plate.
After uniform mixing, incubation was performed in an incubator at 37°C and 5% CO2 for 8 h.
LPS induction: After 8 h, 50 µL of LPS was added to all wells to a final concentration of 2 ng/mL. After uniform mixing, incubation was further performed in an incubator at 37°C and 5% CO2 for 16 h. […]
MSD detection: The buffer was added to the freeze-dried human inflammatory factor standard mixture to prepare a highest concentration standard (standard 1), and then serial 4-fold dilutions were performed and a standard with a concentration of 0 was prepared (a total of 10 concentrations). […] The plate was washed 3 times, and then 150 µL of 2× reading buffer was added and the plate was read using an MSD instrument.

The next test deals with T1, IRAK4 (Homo sapiens, UniProt Q9NWZ3).
T1 sequence (Q9NWZ3 1-460): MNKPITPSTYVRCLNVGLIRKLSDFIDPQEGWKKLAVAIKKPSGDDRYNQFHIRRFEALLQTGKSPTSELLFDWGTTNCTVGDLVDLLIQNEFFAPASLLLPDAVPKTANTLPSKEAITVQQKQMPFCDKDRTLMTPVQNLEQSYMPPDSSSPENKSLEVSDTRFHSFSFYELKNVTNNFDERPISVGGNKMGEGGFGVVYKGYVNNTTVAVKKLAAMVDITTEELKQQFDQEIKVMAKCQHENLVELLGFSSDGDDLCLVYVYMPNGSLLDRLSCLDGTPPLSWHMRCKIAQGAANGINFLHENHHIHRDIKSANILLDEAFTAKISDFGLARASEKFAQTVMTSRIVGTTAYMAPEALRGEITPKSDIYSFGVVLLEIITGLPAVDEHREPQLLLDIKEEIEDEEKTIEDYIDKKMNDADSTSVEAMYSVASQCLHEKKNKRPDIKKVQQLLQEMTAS
Nature of the test: WB detection of proteolysis (Western Blot, THP-1 cells). It counts as cell-based. Particulars: Western Blot, THP-1 cells, 24 h. Summed up:
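IRAK4 level in RIPA lysates read by Western blot with Odyssey imaging; values from bell-shaped non-linear fit with two four-parameter sections (Plateau1, Plateau2, Dip, LogEC50_1/2, nH1/2).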

`Cn1c(=O)n(C2CCC(=O)NC2=O)c2cccc(N3CCC(N4CCN(C[C@H]5CC[C@H](n6cc(-n7cc(-c8cnn9ccc(N%10CCC[C@H](O)C%10)nc89)nn7)c(C(F)F)n6)CC5)CC4)CC3)c21` (stereo partly drawn) [Example 146]: in test [1], the “ability to inhibit the secretion of multiple cytokines by human-derived PBMC” value is “significantly better than that of positive reference KT474”. In addition, the DC50 at IRAK4 (read-out: DC50) is under 10 nM. For the same compound, the Dmax at IRAK4 (read-out: Dmax) is over 70%.

Source of the values: patent EP4759807A1, “PROTEOLYSIS TARGETING CHIMERA COMPOUND FOR DEGRADING IRAK4 AND USE THEREOF” (Shenzhen Zhongge Biological Technology Co., Ltd., priority 2023, dated 2025).
